Patent US5444069A, “Imidazo-pyridine angiotensin II antagonists used to treat memory loss” (Warner-Lambert Company, priority 1994, dated 1995)

Experiments:
[1] = test system: angiotensin II receptors (AT1/AT2) of corpus luteum; test: inhibition of 125I-angiotensin II binding, corpus luteum; parameters: species or system rabbit; settings: 1 μM; 125I-angiotensin II; data from Warner-Lambert Co.
[2] = estrous cycles in the mature female rat; format: in vivo; settings: for Length of cycles: Pre Rx 4; for Number of cycles observed: Pre Rx 10
Procedure: Female rats underwent vaginal smearing every morning for 5 weeks; rats with regular 4-day cycles (proestrus, estrus, metestrus, diestrus) were chosen for further study. Groups of rats (n=5) were implanted with Alzet osmotic minipumps (Model 2ML2) containing Example 1 or vehicle on the afternoon of estrus (approximately 2 PM). Drug-treated animals received 30 mg/kg/day Example I for 14 days. Cycles were continually monitored throughout the treatment period and for an additional 20 to 22 days posttreatment.
Vehicle-treated animals continued to cycle in a 4-day pattern throughout the study.

[3] = effect on renal free water clearance in anesthetized dogs; settings: for Free Water Clearance: predose -0.24 ± 0.05, mean ± SE
Description: Dogs were anesthetized with sodium pentobarbital after an overnight fast. Animals were placed on a prewarmed surgical table, intubated and prepared for renal clearance experiments. Femoral arteries were cannulated for aortic blood pressure measurements and for blood sampling. A femoral vein was cannulated and used for the infusion of inulin. A left flank incision was made to expose the kidney and ureter. An electromagnetic flow probe was placed on the left renal artery and the left ureter was cannulated for urine collection. An intrarenal infusion of 5% dextrose in water (D5W, 50 μL/min) was administered throughout the protocol except during drug treatment intervals. A priming dose of 50 mL D5W containing 200 mg/kg insulin was administered to each dog via the femoral vein catheter and then followed by a sustained infusion of inulin in D5W (15 mg/mL, 0.075 mL/min/kg).
A clearance consisted of a timed urine collection with a midpoint blood sample. […] These last two clearances were designated as postdose.
Plasma and urinary electrolytes were determined with an ion selective electrode analyzer. Urine and plasma inulin concentrations were assayed using an anthrone colorimetric method (Davidson, et al, J. Lab and Clin. Med., 1963, 62, 351-356). Renal clearances and fractional excretion were calculated using standard formulas (Vander, Renal Physiology, 4th ed, pp 44-52 (1991)).

[4] = test system: rat hippocampus acetylcholine (ACh); test: effect on rat hippocampal acetylcholine (ACh) levels; settings: 30 mg/kg IP, 0.5 h; ± SEM; vehicle 23.9 ± 2.39; * p < 0.05
Procedure: Thirty minutes after dosing, the rats were sacrificed by exposure to microwave irradiation. […] Haloperidol (2 mg/kg, IP) provides a positive control.
dosing ACh concentrations were determined as described below.

[5] = biological target: T1, AT2 receptor (whole rat brain) (Rattus norvegicus, UniProt P35351); test: angiotensin II receptor binding in whole rat brain (DTT protocol)
T1 construct: IC50 Values in whole Rat Brain Preparations; from tissue; host or cells: whole rat brain
T1 sequence (P35351 1-363): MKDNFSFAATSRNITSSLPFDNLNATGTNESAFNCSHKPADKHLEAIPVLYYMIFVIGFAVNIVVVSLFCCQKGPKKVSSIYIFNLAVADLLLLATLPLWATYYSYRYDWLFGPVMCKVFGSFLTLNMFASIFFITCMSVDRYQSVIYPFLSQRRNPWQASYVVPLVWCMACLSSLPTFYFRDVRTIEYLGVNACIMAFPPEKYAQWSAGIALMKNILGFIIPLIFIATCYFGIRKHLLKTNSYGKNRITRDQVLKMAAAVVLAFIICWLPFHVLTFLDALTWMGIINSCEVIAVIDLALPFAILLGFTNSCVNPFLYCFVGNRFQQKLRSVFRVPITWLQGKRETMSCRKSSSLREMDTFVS
Description: Since receptor-specific binding in whole brain is low and is a mixture of two subtypes, an alternative protocol (Bennett and Snyder, Eur. J. Pharmacol., 67, 11-25) was used. This method includes DTT and thereby eliminates binding at AT1 receptors, thus-allowing evaluation of AT2 receptor events.

[6] = biological target: T2, AT2 receptor (rabbit uterus receptor preparations) (Oryctolagus cuniculus, UniProt G1T351); test: displacement of 3H-angiotensin II from rabbit uterus receptor preparations; format: binding; settings: read-out: IC50 Values in Rabbit Uterine Preparations
T2 construct: cell membrane preparations derived from rabbit uterus and corpus luteum; from tissue; host or cells: rabbit uterus, cell membrane preparation
T2 sequence (G1T351 1-363): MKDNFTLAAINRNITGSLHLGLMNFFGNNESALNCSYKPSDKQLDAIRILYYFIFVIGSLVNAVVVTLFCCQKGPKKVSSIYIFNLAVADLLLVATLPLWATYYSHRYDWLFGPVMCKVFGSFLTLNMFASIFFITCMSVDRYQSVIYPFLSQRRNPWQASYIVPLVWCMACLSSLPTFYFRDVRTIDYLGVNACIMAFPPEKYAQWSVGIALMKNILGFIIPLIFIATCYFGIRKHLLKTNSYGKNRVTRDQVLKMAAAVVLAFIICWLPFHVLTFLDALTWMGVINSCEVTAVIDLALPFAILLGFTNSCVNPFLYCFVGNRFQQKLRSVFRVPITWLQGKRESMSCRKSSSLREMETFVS
Description: AT2 receptors are known to exist in organs of the female reproductive system. […] More specifically, AT2 receptors are densely located on granulosa cells in atretic follicles of the ovary.

[7] = test system: rat striatum acetylcholine (ACh); test: effect on rat striatal acetylcholine (ACh) levels; format: in vivo; settings: for ACh concentration, rat striatum: vehicle 61.0 ± 2.33; for ACh, rat striatum, time course: control 65.4 ± 2.47
Procedure: ACh concentrations were determined as described below. Each
Results were analyzed by a oneway

[8] = test system: angiotensin II receptors (AT1 and AT2), rat brain regions; test: displacement of 125I-angiotensin II from receptor preparations of rat brain regions; format: binding
Procedure: The concentration of all three antagonist compounds in these experiments is 1 μM (above the maximal effect concentration).

[9] = test system: AT2 receptor, ovarian cells; settings: Pucell et al., Endocrinology 1991; cited from earlier work
[10] = test system: angiotensin II receptors (AT1/AT2) of granulosa cell; settings: cited from earlier work
[11] = 10 mg/kg IP, 0.5 h, ± SEM, * p < 0.05

With `Cc1cc(Cn2cnc3c2C[C@@H](C(=O)O)N(C(=O)C(c2ccccc2)c2ccccc2)C3)ccc1N(C)C` [Example 1] the “% Inhibition with 1 μM Antagonist, Corpus luteum” value [1] was 3%, the “cyclicity during treatment (in words)” value ([2]; 30 mg/kg/day, 14 days) was “acyclic during the 14-day treatment interval” and the “cyclicity posttreatment (in words)” value ([2]; 20 to 22 days posttreatment) was “resumed cycling during the posttreatment observation period”. For the same molecule, the Length of cycles ([2]; Post Rx (20 to 22 days posttreatment), vehicle Post Rx 4) was 3.9 days, the “Number of cycles observed” value ([2]; Post Rx (20 to 22 days posttreatment), vehicle Post Rx 5) was 4 and the Length of cycles ([2]; Rx: 30 mg/kg/day, 14 days, osmotic minipump, vehicle Rx 4.5) was 14.4 days. For the same molecule, the “Number of cycles observed” value ([2]; Rx: 30 mg/kg/day, 14 days, osmotic minipump, vehicle Rx 3) was 1, the “effect on menstrual cycle (in words)” value ([2]; reproductive studies in rats) was “interrupts the menstrual cycle” and the “Free Water Clearance, Change from Predose” value (from here on “Free Water Clearance, Change”) ([3]; 60 min, dose 3 intrarenal) was “+54%”. For the same molecule, the “Free Water Clearance, Change” value ([3]; 90 min, dose 30 intrarenal) was “+150%”, the “Free Water Clearance” value ([3]; 90 min, dose 30 intrarenal, * p = 0.097 vs vehicle) was “+0.11 ± 0.19 mL/min” and the “Free Water Clearance, Change” value ([3]; 120 min, dose 300 intrarenal) was “+370%”. For the same molecule, the “Free Water Clearance” value ([3]; 120 min, dose 300 intrarenal, ** p = 0.015 vs vehicle) was “+0.64 ± 0.30 mL/min”, the “Free Water Clearance” value ([3]; 150 min, postdose (dose 0, after washout), *** p = 0.002 vs vehicle) was “+0.29 ± 0.10 mL/min” and the “Free water clearance, increase from predose levels” value ([3]; intrarenal infusion, cumulative doses 3, 30 and 300 μg/kg/min) was “up to 370%”. For the same molecule, the “free water clearance (in words)” value ([3]; versus vehicle control) was “increase in free water clearance that is dose dependant and statistically significant when compared to the vehicle control”, the “ACh, Hippocampus (Table V)” value [4] was 15.1 ± 1.55 nM/g and the IC50 [5] was 200 nM. The IC50 [6] was 21 nM, the “ACh concentration, rat striatum” value ([7]; 1 mg/kg IP, 0.5 h, ± SEM) was 57.9 ± 1.86 nM/g and the “ACh concentration, rat striatum” value [7, 11] was 48.1 ± 0.99 nM/g. For the same molecule, the “ACh, rat striatum, time course” value [7, 11] was 37.6 ± 2.10 nM/g, the “ACh, rat striatum, time course” value ([7]; 10 mg/kg IP, 1.0 h, ± SEM, * p < 0.05) was 47.9 ± 2.24 nM/g and the “ACh, rat striatum, time course” value ([7]; 10 mg/kg IP, 3.0 h, ± SEM, * p < 0.05) was 50.2 ± 4.53 nM/g. The “ACh, rat striatum, time course” value ([7]; 10 mg/kg IP, 6.0 h, ± SEM) was 55.8 ± 4.28 nM/g, the “ACh, rat striatum, time course” value ([7]; 10 mg/kg IP, 24.0 h, ± SEM) was 61.3 ± 2.30 nM/g and the “time of peak ACh lowering effect” value ([7]; 10 mg/kg, IP) was 0.5 h. The “time for ACh levels to return to control levels” value ([7]; 10 mg/kg, IP, gradual return) was 24 h, the “ACh, Striatum (Table V)” value ([7]; 30 mg/kg IP, 0.5 h, ± SEM, vehicle 52.9 ± 1.72, * p < 0.05) was 39.7 ± 0.99 nM/g and the “ACh concentration, rat striatum” value ([7]; 30 mg/kg IP, 0.5 h, ± SEM, * p < 0.05) was 37.6 ± 2.10 nM/g. The “ACh concentration, rat striatum” value ([7]; 60 mg/kg IP, 0.5 h, ± SEM, * p < 0.05) was 41.1 ± 1.89 nM/g, the “striatal ACh lowering compared with haloperidol (in words)” value ([7]; IP, haloperidol 2 mg/kg) was “matched the efficacy of haloperidol” and the “ACh content in brain tissues (in words)” value ([7]; Tables IV, V and VI) was “lowers ACh content in brain tissues in a dose dependant and time dependant manner”. For the same molecule, the “displacement of 125I-angiotensin II in rat brain areas (in words)” value ([8]; 1 μM per text, each area of brain examined) was “displace a fraction of the ^125 I-angiotensin II that is displaced by saralasin”, the “125I-Angiotensin II Bound, Brain Stem” value ([8]; rat brain stem, antagonist 10 μM, total 2124) was 1258 cpm and the “125I-Angiotensin II Bound, Cerebellum” value ([8]; rat cerebellum, antagonist 10 μM, total 571) was 446 cpm. The “125I-Angiotensin II Bound, Cortex” value ([8]; rat cortex, antagonist 10 μM, total 766) was 507 cpm, the “125I-Angiotensin II Bound, Cortical Neurons” value ([8]; rat cortical neurons, antagonist 10 μM, total 2647) was 2118 cpm and the “125I-Angiotensin II Bound, Striatal Membrane” value ([8]; rat striatal membrane, antagonist 10 μM, total 2462) was 1838 cpm. For the same molecule, the “AT2 antagonism in ovarian cells” value [9] was “AT2 antagonistic properties”, the “% Inhibition with 1 μM Antagonist, Granulosa cell” value ([10]; 1 μM, 125I-angiotensin II, adapted from Pucell et al., Endocrinology 1991) was 97% and the “displacement of 125I-angiotensin II, granulosa cells (in words)” value ([10]; Table IX) was “displaces nearly all of the 125I-angiotensin II”.
